Earlier results in US20210069187A1, “Stable pharmaceutical composition of Selexipag” (RK Pharma Solutions LLC, priority 2019, published 2021).

Tests used:
[1] = not given; remark: listed apart in the source

solubility in water: practically insoluble
stability in the solid state [1]: very stable
hygroscopicity ([1]; solid state): not hygroscopic
light sensitivity ([1]; solid state): not light sensitive
SMILES: CC(C)N(CCCCOCC(=O)NS(C)(=O)=O)c1cnc(-c2ccccc2)c(-c2ccccc2)n1 [Selexipag, 2-{4-[N-(5,6-diphenylpyrazin-2-yl)-N-isopropylamino]butyloxy}-N-(methylsulfonyl)acetamide]
